{"source": "patent US20100298448A1", "about": "“PENETRATION ENHANCERS FOR FUNGICIDAL AGENTS” (priority 2006, published 2010)", "conditions": "apple tree (Golden Delicious variety)", "experimental": "In this test, the penetration of active substances through enzymatically isolated cuticles of apple tree leaves was measured.\nLeaves which were cut off in the stage of full development of apple trees of the Golden Delicious variety were used. The isolation of the cuticles was effected in a manner such that • first leaf discs marked on the underside with dye and punched out were filled by means of vacuum infiltration with a pectinase solution (0.2 to 2% strength) buffered to a pH between 3 and 4, sodium azide was then added and • the leaf discs thus treated were allowed to stand until disintegration of the original leaf structure and detachment of the noncellular cuticle.\nThereafter, only those cuticles of the upper sides of the leaves which were free of staltoa and hairs were further used. They were washed several times alternately with water and a buffer solution at pH 7. The clean cuticles obtained were finally drawn onto small Teflon plates and smoothed and dried with a gentle air jet.\nIn the next step, the cuticle membranes thus obtained were placed in stainless steel diffusion cells (=transport chambers) for membrane transport investigations. For this purpose, the cuticles were placed by means of forceps centrally on the silicone grease-coated edges of the diffusion cells and closed with a likewise greased ring. The arrangement was chosen so that the morphological outside of the cuticles faced outwards, i.e. towards the air, while the original inside faced the interior of the diffusion cell. The diffusion cells were filled with water or with a mixture of water and solvent. […]\nAfter the application of the spray liquors, in each case the water was allowed to evaporate, and in each case the chambers were then turned around and were placed in thermostated trays, air having a defined temperature and atmospheric humidity being blown onto the outside of the cuticle. […] The active substance penetration was measured with radioactively marked active substance."}
{"compound": "CC(C)(C)C(O)(CCc1ccc(Cl)cc1)Cn1cncn1", "note": "(stereo not drawn) [Tebuconazole, tebuconazole]", "values": [{"measurement": "Penetration* after 5 hours [%]", "result": 2, "unit": "%"}, {"measurement": "Penetration* after 1 day [%]", "result": 8, "unit": "%"}, {"measurement": "Penetration** after 2 days [%]", "result": 15, "unit": "%"}]}
